Reference: US20260131007A1, “Mannose 6-Phosphate Receptor Binding Compounds for the Degradation of Extracellular Proteins” (Avilar Therapeutics, Inc., priority 2023, published 2026)

target: T1, Insulin-like growth factor 2 receptor (IGF-1IR, cation-independent mannose-6-phosphate receptor, CI-MPR; hIGF-IIR) (Homo sapiens, UniProt P11717); experiment: HTRF-based ternary complex inhibition assay for relative affinity of IGF-IIR ligands; details: competition with MTAC probe for His-tagged hIGF-IIR; biotinylated IgG1; apparent binding affinity; read-out: TCF INH (HTRF) IC50
T1 construct: purchased R&D Systems 6418-GR
Description: The apparent binding affinity of Insulin-like growth factor 2 receptor (IGF-1IR, also called the cation- independent mannose-6-phosphate receptor (CI-MPR)) ligands was determined indirectly by competing with a probe molecule for binding to IGF-1IR. The probe is a Mannose 6-Phosphate Ligand (“Ligand”) and binds to hIGF-IIR and IgG1 to form a hIGF-IIR: Ligand: IgG1 ternary complex. The ternary complex was detected by an HTRF readout. The ternary complex is disrupted in the presence of IGF-1IR ligand, resulting in decreased HTRF signal. IGF-1IR ligands of 3-fold dilution series were prepared from 10 mM DMSO stock on a 384-well LDV microplate using Echo Acoustic Liquid Handler (Beckman Coulter Life Sciences) followed by transfer of 600 nL of the solutions to an OptiPlate 384-well microplate (PerkinElmer, 6007290). Manose-6-phosphate (M6P; J&K, 530168) and glucose-6-phosphate (G6P; Sigma, V900924) were prepared from 100 mM stock in the same manner and were used as positive and negative controls, respectively. The wells used as 0% and 100% inhibition controls were prepared by adding 600 nL DMSO. 20 nL of 50 μM MTAC probe was transferred to all wells except the wells used as 100% Inhibition control. 9.4 μL working solution containing 65.1 nM of Biotinylated-IgG1 (Viva 20211108) and 65.1 nM of His-tagged hIGF-IIR (R&D Systems, 6418-GR) in assay buffer 50 mM Tris, pH 7.5, 150 mM NaCl, 50 mM CaCl2, 0.01% Tween-20 was transferred to all wells. The plate was incubated at room temperature for 60 min with gentle shaking to allow molecular interaction to reach equilibration. Following this, 10 μL of HTRF detection solution containing 15 nM Streptavidin-d2 (PerkinElmer, 610SADLA) and 0.7 nM MAb Anti 6HIS—Tb cryptate (PerkinElmer, 61HISTLA) in PPI Terbium detection buffer (PerkinElmer, 61DB10RDF) was added. The assay plate was incubated at room temperature with gentle shaking for 60 min to allow HTRF signal to develop. The plate was gently spun on a centrifuge then placed on a EnVision plate reader (Perkin Elmer, EnVision 2104) to read fluorescence ratio of 665 nm/615 nm. Percent inhibitions were calculated with this equation: % I=100* [1−(X−100% I/(0% I−100% I)] where X is the […] in the presence of IGF-1IR ligand. The apparent binding affinity (presented as IC50) was calculated by fitting the % inhibition data with a non-linear 4-parameter inhibition equation using GraphPad Prism (GraphPad Software, LLC; version 9.4.1).

**Q.** With CC(C)(C)OC(=O)N1CCC(n2cc([C@H]3O[C@H](CCP(=O)(O)O)[C@@H](O)[C@H](O)[C@@H]3O)nn2)CC1 [Compound A85, (2-((2R,3S,4S,5S,6R)-6-(1-(1-(tert-butoxycarbonyl)piperidin-4-yl)-1H-1,2,3-triazol-4-yl)-3,4,5-trihydroxytetrahydro-2H-pyran-2-yl)ethyl)phosphonic acid] as the compound, how does the IC50 read?
**A.** < 10 µM

**Q.** Which IC50 does the source give for O=P(O)(O)C1CC1[C@H]1O[C@H](Oc2ccccc2)[C@@H](O)[C@@H](O)[C@@H]1O (stereo partly drawn) [Compound A43, [2-[(2R,3S,4S,5S,6R)-3,4,5-trihydroxy-6-phenoxy-tetrahydropyran-2-yl]cyclopropyl]phosphonic acid] here?
**A.** 10 to 100 µM

**Q.** For COc1ccc(OC2O[C@H](CCP(=O)(O)C(O)c3ccccc3)[C@@H](O)[C@H](O)[C@@H]2O)cc1 (stereo partly drawn) [Compound A74, (hydroxy (phenyl)methyl) (2-((2R,3S,4S,5S)-3,4,5-trihydroxy-6-(4-methoxyphenoxy)tetrahydro-2H-pyran-2-yl)ethyl)phosphinic acid], which IC50 is on record?
**A.** < 10 µM

**Q.** O=P(O)(CC[C@H]1O[C@H](Oc2ccc3c(c2)Cc2ccccc2-3)[C@@H](O)[C@@H](O)[C@@H]1O)Cc1c(F)cccc1F [Compound A79, (2-((2R,3S,4S,5S,6R)-6-((9H-fluoren-2-yl)oxy)-3,4,5-trihydroxytetrahydro-2H-pyran-2-yl)ethyl) (2,6-difluorobenzyl)phosphinic acid] was tested. Which IC50 did it give?
**A.** < 10 µM

**Q.** How did the IC50 turn out when O=P(O)(O)CC[C@H]1O[C@H](/C=C/c2ccccc2)[C@@H](O)[C@@H](O)[C@@H]1O [Compound A21, (2-((2R,3S,4S,5S,6R)-3,4,5-trihydroxy-6-((E)-styryl)tetrahydro-2H-pyran-2-yl)ethyl)phosphonic acid] was run?
**A.** 10 to 100 µM

**Q.** Which IC50 does the source give for CC(=O)N1C[C@@H](O)[C@@H](O)[C@H](O)[C@H]1CCP(=O)(O)O [Compound A61, (2-((2R,3R,4R,5R)-1-acetyl-3,4,5-trihydroxypiperidin-2-yl)ethyl)phosphonic acid] here?
**A.** 10 to 100 µM

**Q.** Which IC50 does the source give for COc1ccc(OC2O[C@H](CCP(=O)(O)CC3CC3(F)F)[C@@H](O)[C@H](O)[C@@H]2O)cc1 (stereo partly drawn) [Compound A58, ((2,2-difluorocyclopropyl)methyl) (2-((2R,3S,4S,5S)-3,4,5-trihydroxy-6-(4-methoxyphenoxy)tetrahydro-2H-pyran-2-yl)ethyl)phosphinic acid] here?
**A.** < 10 µM

**Q.** For O=P(O)(O)CC[C@H]1OC(C#Cc2ccccc2)[C@@H](O)[C@@H](O)[C@@H]1O (stereo partly drawn) [Compound A16, (2-((2R,3S,4S,5S)-3,4,5-trihydroxy-6-(phenylethynyl)tetrahydro-2H-pyran-2-yl)ethyl)phosphonic acid], which IC50 is on record?
**A.** < 10 µM

**Q.** With Nc1ccc2c(c1)Cc1cc(O[C@H]3O[C@H](CCP(=O)(O)O)[C@@H](O)[C@H](O)[C@@H]3O)ccc1-2 [Compound A76, (2-((2R,3S,4S,5S,6R)-6-((7-amino-9H-fluoren-2-yl)oxy)-3,4,5-trihydroxytetrahydro-2H-pyran-2-yl)ethyl)phosphonic acid] as the compound, how does the IC50 read?
**A.** < 10 µM

**Q.** O=C(NS(=O)(=O)CC[C@H]1O[C@H](O)[C@@H](O)[C@@H](O)[C@@H]1O)c1ccccc1 [Compound A12, N-((2-((2R,3S,4S,5S,6S)-3,4,5,6-tetrahydroxytetrahydro-2H-pyran-2-yl)ethyl)sulfonyl)benzamide] was tested. Which IC50 did it give?
**A.** 100 to 300 µM

**Q.** For C[Si](C)(C)C#C[C@H]1O[C@H](CCP(=O)(O)O)[C@@H](O)[C@H](O)[C@@H]1O [Compound A18, (2-((2R,3S,4S,5S,6R)-3,4,5-trihydroxy-6-((trimethylsilyl)ethynyl)tetrahydro-2H-pyran-2-yl)ethyl)phosphonic acid], which IC50 is on record?
**A.** < 10 µM

**Q.** How did the IC50 turn out when O=P(O)(CC[C@H]1O[C@H](Oc2ccccc2)[C@@H](O)[C@@H](O)[C@@H]1O)Cc1c(F)cccc1F [Compound A42, (2,6-difluorobenzyl) (2-((2R,3S,4S,5S,6R)-3,4,5-trihydroxy-6-phenoxytetrahydro-2H-pyran-2-yl)ethyl)phosphinic acid] was run?
**A.** < 10 µM

**Q.** C#CCP(=O)(O)CC[C@H]1OC(Oc2ccc(OC)cc2)[C@@H](O)[C@@H](O)[C@@H]1O (stereo partly drawn) [Compound A77, prop-2-yn-1-yl(2-((2R,3S,4S,5S)-3,4,5-trihydroxy-6-(4-methoxyphenoxy)tetrahydro-2H-pyran-2-yl)ethyl)phosphinic acid] was tested. Which IC50 did it give?
**A.** 10 to 100 µM

**Q.** Which IC50 does the source give for COc1ccc(OC2O[C@H](CCP(=O)(O)Cc3ccccn3)[C@@H](O)[C@H](O)[C@@H]2O)cc1 (stereo partly drawn) [Compound A50, (pyridin-2-ylmethyl) (2-((2R,3S,4S,5S)-3,4,5-trihydroxy-6-(4-methoxyphenoxy)tetrahydro-2H-pyran-2-yl)ethyl)phosphinic acid] here?
**A.** < 10 µM

**Q.** Which IC50 does the source give for CCCP(=O)(O)CC[C@H]1OC(Oc2ccc(OC)cc2)[C@@H](O)[C@@H](O)[C@@H]1O (stereo partly drawn) [Compound A57, propyl(2-((2R,3S,4S,5S)-3,4,5-trihydroxy-6-(4-methoxyphenoxy)tetrahydro-2H-pyran-2-yl)ethyl)phosphinic acid] here?
**A.** < 10 µM

**Q.** How did the IC50 turn out when O=P(O)(CC[C@H]1OC(O)[C@@H](O)[C@@H](O)[C@@H]1O)Cc1c(F)cccc1F (stereo partly drawn) [Compound A60, (2,6-difluorobenzyl) (2-((2R,3S,4S,5S)-3,4,5,6-tetrahydroxytetrahydro-2H-pyran-2-yl)ethyl)phosphinic acid] was run?
**A.** 10 to 100 µM

**Q.** Which IC50 does the source give for C#C[C@H]1O[C@H](CCP(=O)(O)O)[C@@H](O)[C@H](O)[C@@H]1O [Compound A20, (2-((2R,3S,4S,5S,6R)-6-ethynyl-3,4,5-trihydroxytetrahydro-2H-pyran-2-yl)ethyl)phosphonic acid] here?
**A.** < 10 µM

**Q.** For COc1ccc(OC2O[C@H](CCP(=O)(O)Cc3ccccc3)[C@@H](O)[C@H](O)[C@@H]2O)cc1 (stereo partly drawn) [Compound A81, benzyl(2-((2R,3S,4S,5S)-3,4,5-trihydroxy-6-(4-methoxyphenoxy)tetrahydro-2H-pyran-2-yl)ethyl)phosphinic acid], which IC50 is on record?
**A.** < 10 µM

**Q.** O=P(O)(O)CC[C@H]1O[C@H](Oc2ccc3c(c2)Cc2cc(O)ccc2-3)[C@@H](O)[C@@H](O)[C@@H]1O [Compound A22, (2-((2R,3S,4S,5S,6R)-3,4,5-trihydroxy-6-((7-hydroxy-9H-fluoren-2-yl)oxy)tetrahydro-2H-pyran-2-yl)ethyl)phosphonic acid] was tested. Which IC50 did it give?
**A.** < 10 µM

**Q.** For COc1ccc(O[C@H]2O[C@H](CCP(=O)(O)Cc3c(F)cc(F)cc3F)[C@@H](O)[C@H](O)[C@@H]2O)cc1 [Compound A55, (2,4,6-trifluorobenzyl) (2-((2R,3S,4S,5S)-3,4,5-trihydroxy-6-(4-methoxyphenoxy)tetrahydro-2H-pyran-2-yl)ethyl)phosphinic acid], which IC50 is on record?
**A.** 10 to 100 µM

**Q.** For O=P(O)(O)CC[C@H]1O[C@H](c2cn(-c3ccccc3)nn2)[C@@H](O)[C@@H](O)[C@@H]1O [Compound A84, (2-((2R,3S,4S,5S,6R)-3,4,5-trihydroxy-6-(1-phenyl-1H-1,2,3-triazol-4-yl)tetrahydro-2H-pyran-2-yl)ethyl)phosphonic acid], which IC50 is on record?
**A.** < 10 µM

**Q.** For O=P(O)(O)CC[C@H]1O[C@H](c2cn(C3CCNCC3)nn2)[C@@H](O)[C@@H](O)[C@@H]1O [Compound A86, (2-((2R,3S,4S,5S,6R)-3,4,5-trihydroxy-6-(1-(piperidin-4-yl)-1H-1,2,3-triazol-4-yl)tetrahydro-2H-pyran-2-yl)ethyl)phosphonic acid], which IC50 is on record?
**A.** < 10 µM

**Q.** Which IC50 does the source give for O=P(O)(CC[C@H]1O[C@H](OC2CCCCC2)[C@@H](O)[C@@H](O)[C@@H]1O)Cc1ccccc1O [Compound A47, 2-[(2R,3S,4S,5S,6S)-6-(cyclohexoxy)-3,4,5-trihydroxy-tetrahydropyran-2-yl]ethyl-[(2-hydroxyphenyl)methyl]phosphinic acid] here?
**A.** 10 to 100 µM

**Q.** How did the IC50 turn out when COc1ccc(OC2O[C@H](CCP(=O)(O)Cc3ccccc3C#N)[C@@H](O)[C@H](O)[C@@H]2O)cc1 (stereo partly drawn) [Compound A49, (2-cyanophenyl)methyl-[2-[(2R,3S,4S,5S)-3,4,5-trihydroxy-6-(4-methoxyphenoxy)tetrahydropyran-2-yl]ethyl]phosphinic acid] was run?
**A.** < 10 µM

**Q.** For COCP(=O)(O)CC[C@H]1O[C@H](Oc2ccccc2)[C@@H](O)[C@@H](O)[C@@H]1O [Compound A45, methoxymethyl-[2-[(2R,3S,4S,5S,6R)-3,4,5-trihydroxy-6-phenoxy-tetrahydropyran-2-yl]ethyl]phosphinic acid], which IC50 is on record?
**A.** 10 to 100 µM
